A short description of this experiment: Pain relief and mobility in patients with musculoskeletal trauma, flavonoid/flavonol versus NSAID. It counts as in vivo, human. As to the method: A preparation containing 2000 mg of quercitin and 20 mg OPC flavonols was given to one group of patients every 6 hours relief of pain. A second group of patients were given 650 mg of […]) every 4 hours.
The mark [1] stands for this setting: Acute knee trauma patellar dislocation.

In the case of `Cc1ccc(-c2cc(C(F)(F)F)nn2-c2ccc(S(N)(=O)=O)cc2)cc1` [NSAID], the mobility result runs as follows: under setting [1], “mobility = 10”; (Basketball "groin muscle pull") “mobility = 30”; (Blunt injury to R. shoulder) “mobility = 25”. The pain dec entry is reported as “pain dec = 5” under setting [1], “pain dec = 15” (Basketball "groin muscle pull") and “pain dec = 20” (Blunt injury to R. shoulder).

These data come from patent US6620798B1, “Synergistic agents for enhancing tissue repair” (priority 2000, dated 2003).
